Reference: US7122666B2, “Heteroaryl-substituted pyrrole derivatives, their preparation and their therapeutic uses” (Sankyo Company, Limited, priority 1999, dated 2006)

Legend:
[1] = test system: TNFα production in human whole blood; assay: Inhibition of the production of TNFα in vitro in human whole blood (Test Examples 1 and 1′); assay type: cell-based; settings: Table 7′, lipopolysaccharide 10 μg/ml, 6 hours at 37° C., plasma TNFα by ELISA, least squares, read-out: Inhibitory Effect on TNFα Production (in vitro) IC50
Description: (§1) Inhibition of the Production of the Cytokines IL-1β and TNFα in Vitro in Human Whole Blood
(§2) This test was performed according to the method of Hartman, et al. [D. A. Hartman, S. J. Ochalski and R. P. Carlson; The effects of anti-inflammatory and antiallergic drugs on cytokine release after stimulation of human whole blood by lipopolysaccharide and zymosan A: Inflamm. Res., 44, 269 (1995)].
(§3) Peripheral blood samples were collected in the presence of heparin from healthy adult volunteers. 1000 μl of whole blood were added to an Eppendorf tube to which 2 μl of a dimethyl sulfoxide solution of the test compound had been added in advance, after which 10 μl of lipopolysaccharide (E. coli 026: B6 origin, Difco) were added as a stimulant (final concentration of said lipopolysaccharide: 10 μg/ml). This was mixed well and then incubated for 6 hours at 37° C. in the presence of 5% CO2. At the end of the incubation, the mixture was cooled to 4° C. to stop the reaction, followed immediately by centrifuging for 5 minutes at 14,000 rpm to separate and collect the supernatant plasma. The IL-1β and TNFα produced and released into the plasma were measured using a commercially available enzyme immunoassay (ELISA) kit [Cayman (IL-1β) and Genzyme (TNFα)]. The procedure was also repeated in the absence of test compound. The inhibitory effect [IC50 (μM)] on the production of IL-1β and TNFα was determined from the amounts of the cytokines produced in the presence and absence of the test compound.
(§4) Inhibition of the Production of the Cytokines IL-1β and TNFα In Vitro in Human Whole Blood
as §3, with “O26:” for “026:”, “plasma” for “plasma.”, “kits” for “kit”, “determined by the method of least squares” for “determined”

[2] = test system: IL-1β production in human whole blood; assay: Inhibition of the production of IL-1β in vitro in human whole blood (Test Examples 1 and 1′); assay type: cell-based; settings: Table 8′, lipopolysaccharide 10 μg/ml, 6 hours at 37° C., plasma IL-1β by ELISA, least squares, read-out: Inhibitory Effect on IL-1β Production (in vitro) IC50
Description: as §1, §2, §3, §4
as §3, with “O26:” for “026:”, “plasma” for “plasma.”, “kits” for “kit”, “determined by the method of least squares” for “determined”

[3] = test system: TNFα production; assay: Inhibition of the production of TNFα in vivo (Test Examples 2 and 2′); settings: Table 9′; Balb/c mice, oral administration 30 minutes before intravenous lipopolysaccharide, plasma TNFα 1 hour after LPS
Description: This test was performed according to the method of Ochalski, et al. [S. J. Ochalski, D. A. Hartman, M. T. Belfast, T. L. Walter, K. B. Glaser and R. P. Carlson; Inhibition of endotoxin-induced hypothermia and serum TNF-α levels in CD-1 mice by various pharmacological agents: Agents Actions 39, C52–C54 (1993)].
The production of TNFα was induced in mice by the intravenous injection of lipopolysaccharide (E. coli O26: B6 origin, Difco) which was prepared to a concentration of 0.045 mg/ml using physiological saline. The saline preparation of lipopolysaccharide was administered at the rate of 10 ml/l kg of body weight into the caudal vein of Balb/c mice (males, age 5–7 weeks, body weight: approx. 22 g, Japan Charles River) which had been fasted overnight starting on the day before the experiment. One hour after administration, the mice were laparotomized under ether anaesthesia and blood was collected from the abdominal vena cava. Blood collection was performed using a 1 ml volume disposable syringe equipped with a 23G needle which had been moistened with heparin on the inside wall. Following blood collection, the blood was immediately transferred to a 1.5 ml volume Eppendorf tube and centrifuged at 4° C. and 14,000 rpm to separate the plasma. This plasma was then stored at −20° C. until measurement of TNFα. The measurement of the amount of TNFα was performed with a commercially available enzyme immunoassay (ELISA) kit (Mouse TNFα ELISA KIT, Genzyme).
To determine the inhibitory activity of the test compounds, each test compound was suspended in a 0.5% tragacanth solution and then administered orally to the Balb/c mice at the rate of 10 ml/1 kg of body weight 30 minutes before injection of lipopolysaccharide. The level of TNFα production was then determined as described above. In the control group, 0.5% tragacanth solution was administered at the rate of 10 ml/1 kg of body weight to the test mice instead of the solutions of the test compounds. A minimum of 3 dose levels of the test compound was administered to groups of 5 test mice for each test compound. The inhibitory rate relative to the control group was calculated for each dose level. From the inhibitory rates and the dosages, ID50 values were calculated by the least squares method.
The production of TNFα was induced in mice by the intravenous injection of lipopolysaccharide (E. coli O26: B6 origin, Difco) which was prepared to a concentration of 0.045 mg/ml using physiological saline. […]
To determine the inhibitory activity of the test compounds, each test compound was suspended in a 0.5% tragacanth solution and then administered orally to the Balb/c mice at the rate of 10 ml/1 kg of body weight 30 minutes before injection of lipopolysaccharide. The level of TNFα production was then determined as described above. […]

[4] = test system: adjuvant-induced arthritis; assay: Activity in preventing the development of adjuvant-induced arthritis in vivo (Test Examples 4 and 4′); settings: Table 10′; Lewis rat, oral once a day from day 0 to day 20, inhibition of swelling of injected foot on day 21
Description: The test was performed according to the method described by Winder et al. (Arthritis Rheum., 12, 472–482, 1969). Heat-killed dried Mycobacterium butyricum (Difco Laboratories, Lot 679123) was ground on an agate mortar, and was then suspended in dry-sterilised liquid paraffin (first grade, Wako Pure Chemical Industries, Ltd.) to make a 2 ml suspension. The resulting suspension was then sonicated and used as an adjuvant. Arthritis was induced by the intradermal injection of the adjuvant (100 μg of heat killed dried bacterium/0.05 ml of paraffin/paw) into the heel of the right hind paw of a Lewis rat (male, age 8 weeks, Japan Charles River). […] The volumes of the swollen feet (adjuvant-injected right hind foot volume—non-injected left hind foot volume) were calculated. The percent inhibition of swelling of the injected foot of the treated animals as compared to that of the control animals on day 21 was calculated as follows. […] ID50 values were calculated using this curve. […] […]

SMILES	IC50 [1] [nM]	IC50 [2] [nM]	Inhibitory Effect on TNFα Production (in vivo) IC50 [3] [mg/kg]	Activity in Preventing the Development of Adjuvant-Induced Arthritis in vivo IC50 [4] [mg/kg]
CC1=CC2C=C(c3c[nH]c(-c4ccc(F)cc4)c3-c3ccncc3)CCN2C1 (stereo in doubt) [Example 31′, 2-(4-Fluorophenyl)-4-[(8aS)-2-methyl-3,5,6,8a-tetrahydroindolizin-7-yl]-3-(pyridin-4-yl)-1H-pyrrole]	2.4	4.6	0.36	–
Fc1ccc(-c2[nH]cc(C3=C[C@@H]4C[C@H](c5ccccc5)CN4CC3)c2-c2ccncc2)cc1 [Example 12′, 2-(4-Fluorophenyl)-4-[(2R,8aS)-2-phenyl-1,2,3,5,6,8a-hexahydroindolizin-7-yl]-3-(pyridin-4-yl)-1H-pyrrole]	2.5	2.6	–	2.1
CC[C@H]1C[C@H]2C=C(c3c[nH]c(-c4ccc(F)cc4)c3-c3ccncc3)CCN2C1 [Example 32′, 4-[(2S,8aS)-2-Ethyl-1,2,3,5,6,8a-hexahydroindolizin-7-yl)-2-(4-fluorophenyl)-3-(pyridin-4-yl)-1H-pyrrole]	4.5	2.7	0.61	–
CCC[C@H]1C[C@H]2C=C(c3c[nH]c(-c4ccc(F)cc4)c3-c3ccncc3)CCN2C1 [Example 43′, 2-(4-Fluorophenyl)-4-[(2S,8aS)-2-propyl-1,2,3,5,6,8a-hexahydroindolizin-7-yl]-3-(pyridin-4-yl)-1H-pyrrole]	6	8	0.40	–
